The values below are quoted from earlier work in US8586760B2, “Aminothiazole modulators of beta-3-adrenoreceptor” (Auspex Pharmaceuticals, Inc., priority 2009, dated 2013).

Data set [1] has as its target CYP2D6 (Homo sapiens, UniProt P10635).
Data set [2] concerns the target CYP3A4 (Homo sapiens, UniProt P08684).
[3] abbreviates: poor metabolizers compared to extensive metabolizers.

Sequence of CYP3A4 (P08684 whole entry): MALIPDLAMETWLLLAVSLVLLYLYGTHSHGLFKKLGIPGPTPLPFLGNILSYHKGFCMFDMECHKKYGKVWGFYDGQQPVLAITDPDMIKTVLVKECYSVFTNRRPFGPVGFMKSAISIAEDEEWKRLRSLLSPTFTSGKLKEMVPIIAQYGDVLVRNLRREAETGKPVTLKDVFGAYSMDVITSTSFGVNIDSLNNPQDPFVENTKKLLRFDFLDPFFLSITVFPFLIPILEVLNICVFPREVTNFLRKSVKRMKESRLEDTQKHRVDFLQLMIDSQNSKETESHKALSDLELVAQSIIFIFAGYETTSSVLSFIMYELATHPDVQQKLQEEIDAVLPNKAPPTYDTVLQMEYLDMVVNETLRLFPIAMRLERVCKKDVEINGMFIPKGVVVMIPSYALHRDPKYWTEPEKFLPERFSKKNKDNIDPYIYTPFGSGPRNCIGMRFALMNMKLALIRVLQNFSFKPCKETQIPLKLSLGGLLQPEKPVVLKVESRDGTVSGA
Sequence of CYP2D6 (P10635 whole entry): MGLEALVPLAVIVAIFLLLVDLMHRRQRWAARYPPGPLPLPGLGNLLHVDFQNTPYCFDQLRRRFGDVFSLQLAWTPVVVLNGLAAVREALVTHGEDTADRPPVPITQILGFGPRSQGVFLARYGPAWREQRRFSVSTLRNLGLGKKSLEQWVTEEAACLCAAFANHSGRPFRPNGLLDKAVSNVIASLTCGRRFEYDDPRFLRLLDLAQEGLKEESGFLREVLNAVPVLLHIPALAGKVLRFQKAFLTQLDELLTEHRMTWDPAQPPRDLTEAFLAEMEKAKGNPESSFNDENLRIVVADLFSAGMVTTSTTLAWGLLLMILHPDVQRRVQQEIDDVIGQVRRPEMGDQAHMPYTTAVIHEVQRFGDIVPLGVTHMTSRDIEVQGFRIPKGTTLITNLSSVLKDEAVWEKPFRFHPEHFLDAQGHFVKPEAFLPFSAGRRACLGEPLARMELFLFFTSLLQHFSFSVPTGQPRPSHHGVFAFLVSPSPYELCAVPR

Turning to `Nc1nc(CC(=O)Nc2ccc(CCNC[C@H](O)c3ccccc3)cc2)cs1` [Mirabegron, 2-amino-N-[4-[2-[[(2R)-2-hydroxy-2-phenylethyl]amino]ethyl]phenyl]-4-thiazoleacetamide], the “metabolism by CYP2D6” value in data set [1] is given as “oxidative cleavage”. For the same compound, the Intersubject variability result (poor metabolizers) is recorded as “generally higher”. Further, under setting [3], the “Mean Cmax” value is “slightly higher”, the “mean AUC” value was “slightly higher” and the t1/2 result is on record as “longer”. Besides, the “metabolism by CYP3A4” value in data set [2] is listed as “oxidative cleavage”.
